Assays:
[1] = target: T1, Nuclear receptor ROR-gamma (Mus musculus, UniProt P51450); assay: Antagonist activity at mouse Gal4-fused DBD RORgamma LBD (Pro-261-end) expressed in TRex-CHOK1 cells after 20 hrs by luciferase reporter gene assay; format: cell-based
T1 sequence (P51450 whole entry): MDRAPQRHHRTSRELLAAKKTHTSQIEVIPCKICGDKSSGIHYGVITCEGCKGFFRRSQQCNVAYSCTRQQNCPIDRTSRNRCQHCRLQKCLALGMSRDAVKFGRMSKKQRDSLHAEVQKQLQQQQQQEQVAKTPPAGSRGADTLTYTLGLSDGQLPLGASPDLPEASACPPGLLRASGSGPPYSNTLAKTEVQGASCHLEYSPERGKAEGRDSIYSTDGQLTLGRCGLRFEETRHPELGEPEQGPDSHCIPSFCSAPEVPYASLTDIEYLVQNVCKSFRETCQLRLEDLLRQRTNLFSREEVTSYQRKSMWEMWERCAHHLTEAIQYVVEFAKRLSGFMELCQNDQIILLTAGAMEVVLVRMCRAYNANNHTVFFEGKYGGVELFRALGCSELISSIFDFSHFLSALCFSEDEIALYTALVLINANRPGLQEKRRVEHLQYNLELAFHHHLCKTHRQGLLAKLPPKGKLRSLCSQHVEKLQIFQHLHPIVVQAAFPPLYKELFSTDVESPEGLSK

[2] = target: T2, Nuclear receptor ROR-beta (Rattus norvegicus, UniProt P45446); assay: Antagonist activity at rat Gal4-fused DBD RORbeta LBD (Pro-205-end) expressed in TRex-CHOK1 cells after 20 hrs by luciferase reporter gene assay; format: cell-based
T2 sequence (P45446 whole entry): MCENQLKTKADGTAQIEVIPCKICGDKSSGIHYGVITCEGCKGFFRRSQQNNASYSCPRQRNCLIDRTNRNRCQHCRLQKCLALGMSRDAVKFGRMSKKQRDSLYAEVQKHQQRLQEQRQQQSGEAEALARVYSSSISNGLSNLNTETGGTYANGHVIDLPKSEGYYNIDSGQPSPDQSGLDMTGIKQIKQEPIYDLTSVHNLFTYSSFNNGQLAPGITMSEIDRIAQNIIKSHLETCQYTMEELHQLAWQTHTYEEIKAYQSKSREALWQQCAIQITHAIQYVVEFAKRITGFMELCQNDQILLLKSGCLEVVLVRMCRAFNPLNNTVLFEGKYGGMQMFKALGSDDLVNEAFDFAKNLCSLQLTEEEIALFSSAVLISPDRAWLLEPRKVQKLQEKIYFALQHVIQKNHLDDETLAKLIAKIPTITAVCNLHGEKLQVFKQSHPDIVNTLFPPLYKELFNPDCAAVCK

Structure (SMILES) | IC50 [1] | IC50 [2]
Fc1cccc(CC2=N[C@@H](CCCCN3C[C@H](Cc4ccccc4)N(CCc4ccccc4)C3=S)CN2)c1 | 6.6 µM | 12.4 µM
CCCC1=N[C@@H](CCCCN2C[C@@H](C(C)(C)C)N(CCc3ccccc3)C2=S)CN1 | 11.8 µM | 22.3 µM
CCCC[C@H]1CN(CCCC[C@H]2CNC(CCC)=N2)C(=S)N1CCc1ccccc1 | 10.2 µM | 17.5 µM
CCCC1=N[C@@H](CCCCN2C[C@H](Cc3ccccc3)N(CCC3C4CC5CC(C4)CC3C5)C2=S)CN1 (stereo not given in full) | 7.9 µM | 10.7 µM
Fc1ccc(CC2=N[C@@H](CCCCN3C[C@H](Cc4ccccc4)N(CCc4ccccc4)C3=S)CN2)cc1 | 7.7 µM | 12.4 µM
CC(CC1=N[C@@H](CCCCN2C[C@H](Cc3ccccc3)N(CCc3ccccc3)C2=S)CN1)c1ccccc1 (stereo not given in full) | 6.5 µM | 10.9 µM
CCCC1=N[C@@H](CCCCN2C[C@H](Cc3ccccc3)N(CCC3CC4CCC3C4)C2=S)CN1 (stereo not given in full) | 9.3 µM | 17 µM
C=CCC1=N[C@@H](CCCCN2C[C@H](Cc3ccccc3)N(CCc3ccccc3)C2=S)CN1 | 10.2 µM | 14.3 µM
CCCC1=N[C@@H](CCCCN2C[C@H](Cc3ccccc3)N(CC3CCC(C)CC3)C2=S)CN1 (stereo not given in full) | 13.7 µM | 21.1 µM

Second part, the compound after the results:

IC50 [1] | IC50 [2] | Structure (SMILES)
5.8 µM | 12.5 µM | C/C=C/C1=N[C@@H](CCCCN2C[C@H](Cc3ccccc3)N(CCc3ccccc3)C2=S)CN1
6.4 µM | 10.2 µM | CCCC1=N[C@@H](CCCCN2C[C@H](Cc3ccccc3)N(CCCC3CCCC3)C2=S)CN1
6.3 µM | 8.4 µM | COc1cccc(CC2=N[C@@H](CCCCN3C[C@H](Cc4ccccc4)N(CCc4ccccc4)C3=S)CN2)c1
6.3 µM | 9 µM | Cc1cccc(CC2=N[C@@H](CCCCN3C[C@H](Cc4ccccc4)N(CCc4ccccc4)C3=S)CN2)c1
5.1 µM | 8.3 µM | S=C1N(CCCC[C@H]2CNC(CC3CCCCC3)=N2)C[C@H](Cc2ccccc2)N1CCc1ccccc1
5.6 µM | 9.1 µM | S=C1N(CCCC[C@H]2CNC(CCC3CCCC3)=N2)C[C@H](Cc2ccccc2)N1CCc1ccccc1
